Legend:
SW-620 [1] = assay: Growth inhibition of human SW620 cells assessed as cell growth at 100 uM after 48 hrs by SRB assay relative to control; type: functional; conditions: SW-620, 48 h, read-out: Activity
A549 [2] = assay: Growth inhibition of human A549/ATCC cells assessed as cell growth at 0.01 uM after 48 hrs by SRB assay relative to control; type: functional; conditions: A549, 48 h, read-out: Activity
MDA-MB-468 = assay: Growth inhibition of human MDA-MB-468 cells assessed as cell growth at 0.1 uM after 48 hrs by SRB assay relative to control; type: functional; conditions: MDA-MB-468, 48 h, read-out: Activity
CAKI-1 = assay: Growth inhibition of human Caki1 cells assessed as cell growth at 10 uM after 48 hrs by SRB assay relative to control; type: functional; conditions: CAKI-1, 48 h, read-out: Activity
DU-145 = assay: Growth inhibition of human DU145 cells assessed as cell growth at 1 uM after 48 hrs by SRB assay relative to control; type: functional; conditions: DU-145, 48 h, read-out: Activity
NCI-H23 = assay: Growth inhibition of human NCI-H23 cells assessed as cell growth at 0.01 uM after 48 hrs by SRB assay relative to control; type: functional; conditions: NCI-H23, 48 h, read-out: Activity
COLO 205 [3] = assay: Growth inhibition of human COLO205 cells assessed as cell growth at 10 uM after 48 hrs by SRB assay relative to control; type: functional; conditions: COLO 205, 48 h, read-out: Activity
RXF 393 = assay: Growth inhibition of human RXF393 cells assessed as cell growth at 10 uM after 48 hrs by SRB assay relative to control; type: functional; conditions: RXF 393, 48 h, read-out: Activity
A549 [4] = assay: Cytotoxicity against human A549/ATCC cells assessed as growth inhibition after 48 hrs by SRB assay; type: functional; conditions: A549, 48 h
UACC-257 = assay: Growth inhibition of human UACC257 cells assessed as cell growth at 10 uM after 48 hrs by SRB assay relative to control; type: functional; conditions: UACC-257, 48 h, read-out: Activity
K562 = assay: Growth inhibition of human K562 cells assessed as cell growth at 100 uM after 48 hrs by SRB assay relative to control; type: functional; conditions: K562, 48 h, read-out: Activity
HOP-62 [5] = assay: Growth inhibition of human HOP62 cells assessed as cell growth at 1 uM after 48 hrs by SRB assay relative to control; type: functional; conditions: HOP-62, 48 h, read-out: Activity
UO-31 = assay: Growth inhibition of human UO31 cells assessed as cell growth at 0.1 uM after 48 hrs by SRB assay relative to control; type: functional; conditions: UO-31, 48 h, read-out: Activity
SR = assay: Growth inhibition of human SR cells assessed as cell growth at 1 uM after 48 hrs by SRB assay relative to control; type: functional; conditions: read-out: Activity
SK-MEL-5 [6] = assay: Growth inhibition of human SK-MEL-5 cells assessed as cell growth at 10 uM after 48 hrs by SRB assay relative to control; type: functional; conditions: SK-MEL-5, 48 h, read-out: Activity
NCI-H460 = assay: Growth inhibition of human NCI-H460 cells assessed as cell growth at 10 uM after 48 hrs by SRB assay relative to control; type: functional; conditions: NCI-H460, 48 h, read-out: Activity
OVCAR-8 = assay: Growth inhibition of human OVCAR8 cells assessed as cell growth at 0.1 uM after 48 hrs by SRB assay relative to control; type: functional; conditions: OVCAR-8, 48 h, read-out: Activity
HCT-15 = assay: Cytotoxicity against human HCT15 cells assessed as growth inhibition after 48 hrs by SRB assay; type: functional; conditions: HCT-15, 48 h
Tubulin = Tubulin (Bos taurus, UniProt Q6B856+Q862L2+Q862F3); assay: Inhibition of bovine brain tubulin polymerization measured every 1 min for 60 mins by turbidimetry based microplate reader analysis
SK-MEL-5 [7] = assay: Growth inhibition of human SK-MEL-5 cells assessed as cell growth at 1 uM after 48 hrs by SRB assay relative to control; type: functional; conditions: SK-MEL-5, 48 h, read-out: Activity
ACHN = assay: Growth inhibition of human ACHN cells assessed as cell growth at 100 uM after 48 hrs by SRB assay relative to control; type: functional; conditions: read-out: Activity
T47D = assay: Growth inhibition of human T47D cells assessed as cell growth at 0.1 uM after 48 hrs by SRB assay relative to control; type: functional; conditions: read-out: Activity
HOP-92 = assay: Growth inhibition of human HOP92 cells assessed as cell growth at 1 uM after 48 hrs by SRB assay relative to control; type: functional; conditions: HOP-92, 48 h, read-out: Activity
NCI-H522 = assay: Growth inhibition of human NCI-H522 cells assessed as cell growth at 0.1 uM after 48 hrs by SRB assay relative to control; type: functional; conditions: NCI-H522, 48 h, read-out: Activity
EKVX = assay: Growth inhibition of human EKVX cells assessed as cell growth at 10 uM after 48 hrs by SRB assay relative to control; type: functional; conditions: read-out: Activity
COLO 205 [8] = assay: Growth inhibition of human COLO205 cells assessed as cell growth at 0.1 uM after 48 hrs by SRB assay relative to control; type: functional; conditions: COLO 205, 48 h, read-out: Activity
HCT-116 = assay: Growth inhibition of human HCT116 cells assessed as cell growth at 10 uM after 48 hrs by SRB assay relative to control; type: functional; conditions: HCT-116, 48 h, read-out: Activity
SK-MEL-2 = assay: Growth inhibition of human SK-MEL-2 cells assessed as cell growth at 0.01 uM after 48 hrs by SRB assay relative to control; type: functional; conditions: SK-MEL-2, 48 h, read-out: Activity
HOP-62 [9] = assay: Growth inhibition of human HOP62 cells assessed as cell growth at 0.01 uM after 48 hrs by SRB assay relative to control; type: functional; conditions: HOP-62, 48 h, read-out: Activity
SW-620 [10] = assay: Growth inhibition of human SW620 cells assessed as cell growth at 10 uM after 48 hrs by SRB assay relative to control; type: functional; conditions: SW-620, 48 h, read-out: Activity
HOP-62 [11] = assay: Cytotoxicity against human HOP62 cells assessed as growth inhibition after 48 hrs by SRB assay; type: functional; conditions: HOP-62, 48 h
MDA-MB-435 = assay: Growth inhibition of human MDA-MB-435 cells assessed as cell growth at 0.1 uM after 48 hrs by SRB assay relative to control; type: functional; conditions: MDA-MB-435, 48 h, read-out: Activity
HT-29 = assay: Growth inhibition of human HT-29 cells assessed as cell growth at 0.1 uM after 48 hrs by SRB assay relative to control; type: functional; conditions: HT-29, 48 h, read-out: Activity
[12] = read-out: LC50 (the source's name)
[13] = read-out: pLC50 (the source's name) (converted)

COc1ccc2c(c1)CCc1n[nH]c(-c3cc(OC)c(OC)c(OC)c3)c1-2
growth at 100 µM (SW-620 [1]): -75% | growth at 0.01 µM (A549 [2]): 14% | growth at 0.1 µM (MDA-MB-468): -2% | growth at 10 µM (CAKI-1): 13% | growth at 1 µM (DU-145): 12% | growth at 0.01 µM (NCI-H23): 14% | growth at 10 µM (COLO 205 [3]): -61% | growth at 10 µM (RXF 393): -6% | GI50 (A549 [4]; read-out: GI50): < 0.01 µM | CC50 (A549 [4]; [12]): > 100 µM | TGI (A549 [4]; read-out: TGI): 19.5 µM | GI50 (A549 [4]; read-out: pGI50 (converted)): < 0.01 µM | CC50 (A549 [4]; [13]): > 100 µM | TGI (A549 [4]; read-out: pTGI (converted)): 19.5 µM | growth at 10 µM (UACC-257): 56% | growth at 100 µM (K562): 7% | growth at 1 µM (HOP-62 [5]): 6% | growth at 0.1 µM (UO-31): 30% | growth at 1 µM (SR): 16% | growth at 10 µM (SK-MEL-5 [6]): -21% | growth at 10 µM (NCI-H460): -5% | growth at 0.1 µM (OVCAR-8): 13% | GI50 (HCT-15; read-out: GI50): < 0.01 µM | CC50 (HCT-15; [12]): > 100 µM | TGI (HCT-15; read-out: TGI): 11.8 µM | GI50 (HCT-15; read-out: pGI50 (converted)): < 0.01 µM | CC50 (HCT-15; [13]): > 100 µM | TGI (HCT-15; read-out: pTGI (converted)): 11.7 µM | IC50 (Tubulin): 3.4 µM | growth at 1 µM (SK-MEL-5 [7]): -24% | growth at 100 µM (ACHN): -29% | growth at 0.1 µM (T47D): 74% | growth at 1 µM (HOP-92): 27% | growth at 0.1 µM (NCI-H522): -18% | growth at 10 µM (EKVX): 37% | growth at 0.1 µM (COLO 205 [8]): -46% | growth at 10 µM (HCT-116): -15% | growth at 0.01 µM (SK-MEL-2): 39% | growth at 0.01 µM (HOP-62 [9]): 11% | growth at 10 µM (SW-620 [10]): 14% | GI50 (HOP-62 [11]; read-out: GI50): < 0.01 µM | CC50 (HOP-62 [11]; [12]): 46.7 µM | TGI (HOP-62 [11]; read-out: TGI): 10.8 µM | GI50 (HOP-62 [11]; read-out: pGI50 (converted)): < 0.01 µM | CC50 (HOP-62 [11]; [13]): 46.8 µM | TGI (HOP-62 [11]; read-out: pTGI (converted)): 10.7 µM | growth at 0.1 µM (MDA-MB-435): -39% | growth at 0.1 µM (HT-29): 2%
